Assay results reported in article PMC5145181, “Structural Mapping and Functional Characterization of Zebrafish Class B G-Protein Coupled Receptor (GPCR) with Dual Ligand Selectivity towards GLP-1 and Glucagon” (PLoS ONE, 2016).
Like-named read-outs stand apart in the source and are kept apart here.

Key:
[1] = tested on: zfGPCR (dual zfGLP-1R/GCGR); assay: Competitive binding, displacement of 125I-hGLP-1(7–36)amide from recombinant zfGPCR expressed in COS-7 cells; parameters: species or system zebrafish (Danio rerio); conditions: 125I-hGLP-1(7–36)amide tracer, intact COS-7 cells, 16–18 h at 4°C, triplicate wells; NSB with 1 μM peptide; n = 3 hGLP-1, n = 2 zf glucagon, exendin-4, exendin(9–39), n = 1 zfGLP-1. 95% CI: zfGLP-1 1.2–3.6; hGLP-1 0.98–13; zf glucagon 1.4–4.0; exendin-4 0.24–0.92; exendin(9–39) 2.4–14
Experimental: (§1) Competitive binding experiments were performed with the recombinant zfGPCR expressed in COS-7 cells, as described previously. Transient transfections of pcDNA3 vector containing recombinant zfGPCR into COS-7 cells were performed as described below for the stimulation of intracellular cAMP. Cells were grown in 100-mm plates to confluence and 24 hr after transfection they were trypsinized and transferred to 24 well plates (Biocore, Becton Dickinson). 24–48 hr later each peptide (pM to μM) was added in triplicate wells followed by the addition of an aliquot (100,000 cpm/well) of either ^125I-hGLP-1(7–36)amide or ^125I-exendin(9–39) (each radioactive peptide tracer at […] receptor grade, NEN Life Science Products, Boston, MA). Peptides, radioiodinated ^125I-tracer and cells were incubated for 16–18 h at 4°C. After incubation cells were washed twice with ice-cold PBS, lysed with 1N NaOH and radioactivity measured in a γ-counter. A single dose-displacement curve for each peptide was obtained in a single 24-well plate.
Dose-response curves for zfGLP-1, zfGLP-2 and zebrafish PACAP-38 were obtained from one transfection. […] Lower rounds of transfections were performed in experiments that replicated our published results from the competitive binding experiments with the displacement of ^125I-hGLP-1(7–36)amide binding to zfGPCR [41] and thus represented positive controls for these studies.
(§2) IC50 values represent an average of n experiments as described above and were calculated by the Prism 4 software. Displacement curves from the competitive binding experiments were plotted by Origin 9 software (OriginLab). Error bars are shown for data points in the displacement curves obtained in two or more rounds of transfections.
(§3) Results from the functional experiments with recombinant zfGPCR transiently expressed in COS-7 cells were analyzed by the Prism 4 software using a four-parameter logistic sigmoidal curve fit model. Data points represent mean +/- SEM.
They are shown together with the 95% confidence intervals (CIs). […]

[2] = tested on: zfGPCR (dual zfGLP-1R/GCGR); assay: Competitive binding, displacement of 125I-exendin(9–39) from recombinant zfGPCR expressed in COS-7 cells; parameters: species or system zebrafish (Danio rerio); conditions: 125I-exendin(9–39) tracer, intact COS-7 cells, 16–18 h at 4°C, triplicate wells, NSB with 1 μM peptide, n = 4 zfGLP-1, n = 3 hGLP-1, zf glucagon, exendin-4, n = 5 exendin(9–39). 95% CI: zfGLP-1 225–371, hGLP-1 121–262, zf glucagon 78.5–144, h glucagon 33.6–134, exendin-4 0.84–1.17, exendin(9–39) 3.42–5.17
Experimental: as §1
Non-specific binding was determined in the presence of 1μM of each peptide.
as §2, §3
They are shown together with the 95% confidence intervals (CIs). The F-test was used to compare the IC50 value for zfGLP-1 with the IC50 values for the other tested peptides obtained in the competitive binding experiments shown when ^125I-hGLP-1(7–36)amide or ^125I-exendin (9–39) were used as tracers. Following conditions were used for the curve fitting: (i) in the normalization step y = 0%was set to be 0, y = 100% was set to be 100; (ii) constrained curve-fit parameters were set to be equal to 0.00 on the bottom, 100 on top; (iii) IC50 was not constrained; (iv) the selected option in the non-linear regression curve fit was intended on finding out whether the best-fit of a selected parameter (IC50) differs between two sets.

[3] = tested on: zfGPCR (dual zfGLP-1R/GCGR); conditions: cited from earlier work
Experimental: Furthermore, exendin-4, an agonist of hGLP-1R, displaced in competitive binding experiments the binding of ^125I-hGLP-1(7–36) amide to the zebrafish receptor with an IC50 of 0.9 nM, which is within a similar concentration range as the one determined in competitive binding experiments with recombinant hGLP-1R [41] and rGLP-1R [23]. However, subsequent phylo ...

[4] = tested on: hGLP-1R mutant Ser155 to alanine; conditions: Ser152 in hGCGR = Ser155 in hGLP-1R, mutated to alanine; cited from earlier work
From the text: Among those are TM1-TM7 interaction between Ser152^1.50 and Ser 390^7.47 in which Ser152^1.50 in TM1 in hGCGR forms a hydrogen bond with the backbone of Ser390^7.47 in TM7.

[5] = tested on: hGLP-1R mutant Asn318 to alanine; parameters: method as in PMID 23479653; conditions: Asn318 mutated to alanine, cell surface expression unchanged; cited from earlier work
GLP-1R = conditions: cited from earlier work
From the text: Receptors for GLP-1 (GLP-1R) and glucagon (GCGR) belong to the class B GPCRs that mediate the physiological effects of the peptides within the glucagon-secretin peptide family. Their structures are characterized by large amino terminal extracellular domains which are about 140 amino acids long and an intracellular core consisting of a cytoplasmic domain and seven transmembrane helices (7TMs) connected through three extracellular and three intracellular loops.

exendin-4: peptide exclusively found in the saliva of a lizard; agonist of GLP-1R; purchased from Bachem
IC50 [1]: 0.48 nM
IC50 [2]: 1 nM
IC50 (in words) ([3]; competitive binding, recombinant zfGPCR, similar to rGLP-1R and hGLP-1R): in the low nM range
IC50 ([3]; displacement of 125I-hGLP-1(7–36)amide, read-out: IC50 in competitive binding (earlier characterization of the zfGPCR)): 0.9 nM
receptor affinity [4]: small reduction of receptor affinity
receptor affinity [5]: reduced the receptor’s affinity
stimulation of intracellular cAMP, GLP-1 vs exendin-4 (GLP-1R): to a similar degree
